Reference: ChEMBL document CHEMBL1152016, “Synthesis and -lactamase inhibition of anacardic acids and their analogues” (Bioorg Med Chem Lett, 1994)
In brackets after ≈: the same amount, converted by molar mass.

How the values were obtained:
[1] = target: Beta-lactamase TEM (Escherichia coli, UniProt P62593); assay: Concentration required for its inhibitory activity against Escherichia coli JT4(TEM1) class A beta-lactamase
[2] = target: T1, Beta-lactamase (Staphylococcus aureus, UniProt P00807); assay: Concentration required for its inhibitory activity against Staphylococcus aureus Russel class A beta-lactamase; No inhibition
T1 sequence (P00807 whole entry): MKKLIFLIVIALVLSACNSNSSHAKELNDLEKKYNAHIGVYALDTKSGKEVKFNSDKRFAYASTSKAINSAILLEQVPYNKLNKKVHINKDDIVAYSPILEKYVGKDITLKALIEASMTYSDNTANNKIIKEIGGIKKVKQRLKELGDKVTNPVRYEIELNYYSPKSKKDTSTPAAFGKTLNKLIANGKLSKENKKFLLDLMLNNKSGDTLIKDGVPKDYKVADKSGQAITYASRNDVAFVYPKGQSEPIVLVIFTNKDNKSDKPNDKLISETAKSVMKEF

[3] = target: T2, Beta-lactamase pse-1 (Escherichia coli, UniProt Q2V0Y6); assay: Concentration required for its inhibitory activity against Escherichia coli K12(PSE4) class A beta-lactamase
T2 sequence (Q2V0Y6 whole entry): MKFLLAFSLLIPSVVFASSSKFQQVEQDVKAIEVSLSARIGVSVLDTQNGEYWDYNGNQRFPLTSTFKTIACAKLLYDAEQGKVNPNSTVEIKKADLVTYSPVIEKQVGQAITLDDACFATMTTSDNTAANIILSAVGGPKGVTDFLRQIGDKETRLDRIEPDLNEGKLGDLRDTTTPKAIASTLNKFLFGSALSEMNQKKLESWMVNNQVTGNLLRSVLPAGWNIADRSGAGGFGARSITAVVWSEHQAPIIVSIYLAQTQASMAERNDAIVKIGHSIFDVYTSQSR

[4] = target: Beta-lactamase (Enterobacter cloacae, UniProt P05364); assay: Concentration required for its inhibitory activity against Enterobacter cloacae P99 class C beta-lactamase
Beta-lactamase (Enterobacter cloacae, UniProt P05364), sequence (P05364 whole entry): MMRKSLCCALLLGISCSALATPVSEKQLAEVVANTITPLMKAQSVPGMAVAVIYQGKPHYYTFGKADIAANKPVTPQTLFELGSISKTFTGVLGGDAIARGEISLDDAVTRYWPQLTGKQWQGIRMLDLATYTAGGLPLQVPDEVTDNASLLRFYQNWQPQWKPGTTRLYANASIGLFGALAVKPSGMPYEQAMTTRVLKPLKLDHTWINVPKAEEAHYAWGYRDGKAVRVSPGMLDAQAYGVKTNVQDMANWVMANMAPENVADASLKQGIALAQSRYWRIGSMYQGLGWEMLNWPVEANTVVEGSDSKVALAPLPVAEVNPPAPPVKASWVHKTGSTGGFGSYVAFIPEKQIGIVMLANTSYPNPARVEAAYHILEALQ

[5] = target: T3, Beta-lactamase (Proteus mirabilis, UniProt P30897); assay: Concentration required for its inhibitory activity against Proteus mirabilis C889 class A beta-lactamase
T3 sequence (P30897 whole entry): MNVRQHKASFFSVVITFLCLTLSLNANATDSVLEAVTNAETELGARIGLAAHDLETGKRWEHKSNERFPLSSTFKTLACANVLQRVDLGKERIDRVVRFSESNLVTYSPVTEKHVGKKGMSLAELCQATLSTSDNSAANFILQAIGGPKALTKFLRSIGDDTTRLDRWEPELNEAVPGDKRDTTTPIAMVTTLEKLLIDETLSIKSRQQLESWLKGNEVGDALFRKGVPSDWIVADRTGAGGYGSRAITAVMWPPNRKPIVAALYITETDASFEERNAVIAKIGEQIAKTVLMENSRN

[6] = target: Beta-lactamase (Pseudomonas aeruginosa (strain ATCC 15692 / PAO1 / 1C / PRS 101 / LMG12228), UniProt P24735); assay: Concentration required for its inhibitory activity against Pseudomonas aeruginosa class C beta-lactamase
Beta-lactamase (Pseudomonas aeruginosa (strain ATCC 15692 / PAO1 / 1C / PRS 101 / LMG12228), UniProt P24735), sequence (P24735 whole entry): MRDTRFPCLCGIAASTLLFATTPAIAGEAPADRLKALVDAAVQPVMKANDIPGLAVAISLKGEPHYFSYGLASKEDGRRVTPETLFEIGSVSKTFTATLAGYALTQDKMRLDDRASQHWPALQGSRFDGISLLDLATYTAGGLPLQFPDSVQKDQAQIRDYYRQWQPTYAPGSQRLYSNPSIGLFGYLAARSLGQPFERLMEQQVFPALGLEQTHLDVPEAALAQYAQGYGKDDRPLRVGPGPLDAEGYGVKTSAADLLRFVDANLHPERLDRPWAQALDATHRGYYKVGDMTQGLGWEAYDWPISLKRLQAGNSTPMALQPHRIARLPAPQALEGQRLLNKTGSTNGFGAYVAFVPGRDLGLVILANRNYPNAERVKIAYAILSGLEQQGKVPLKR

[7] = target: T4, Beta-lactamase OXA-1 (Escherichia coli, UniProt P13661); assay: Concentration required for its inhibitory activity against Escherichia coli K12(OXA1) class D beta-lactamase
T4 sequence (P13661 whole entry): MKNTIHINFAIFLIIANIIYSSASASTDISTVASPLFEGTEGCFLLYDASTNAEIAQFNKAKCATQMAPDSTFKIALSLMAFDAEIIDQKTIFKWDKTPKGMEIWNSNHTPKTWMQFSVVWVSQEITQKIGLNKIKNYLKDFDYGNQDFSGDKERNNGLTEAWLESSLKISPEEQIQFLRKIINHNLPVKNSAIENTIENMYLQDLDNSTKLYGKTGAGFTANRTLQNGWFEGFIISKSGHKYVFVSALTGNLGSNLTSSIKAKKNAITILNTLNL

[8] = target: T1, Beta-lactamase; assay: Concentration required for its inhibitory activity against Staphylococcus aureus Russel class A beta-lactamase
[9] = target: T3, Beta-lactamase; assay: Concentration required for its inhibitory activity against Proteus mirabilis C889 class A beta-lactamase; No inhibition
[10] = target: T4, Beta-lactamase OXA-1; assay: Concentration required for its inhibitory activity against Escherichia coli K12(OXA1) class D beta-lactamase; No inhibition

Beta-lactamase TEM, sequence (P62593 whole entry): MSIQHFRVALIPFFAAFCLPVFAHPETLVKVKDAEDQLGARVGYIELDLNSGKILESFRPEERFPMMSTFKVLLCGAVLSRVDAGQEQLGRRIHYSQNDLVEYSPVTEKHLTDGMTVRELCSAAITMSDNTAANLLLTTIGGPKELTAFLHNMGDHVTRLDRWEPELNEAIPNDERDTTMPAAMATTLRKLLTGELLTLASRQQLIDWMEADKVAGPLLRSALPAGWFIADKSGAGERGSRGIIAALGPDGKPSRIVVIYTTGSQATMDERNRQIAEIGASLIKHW

Row | SMILES | IC50 [1] | IC50 [2] | IC50 [3] | IC50 [4] | IC50 [5] | IC50 [6] | IC50 [7] | IC50 [8] | IC50 [9] | IC50 [10]
1 | CCCCCCCCCCc1ccccc1C(=O)O | 18 µg/mL (≈ 68.6 µM) | Not Active |  |  |  |  |  |  |  | 
2 | CCCCCCCCCCCCCCCCCc1cccc(O)c1C(=O)O | 1.9 µg/mL (≈ 5.05 µM) | Not Active | 0.7 µg/mL (≈ 1.86 µM) | 1 µg/mL (≈ 2.66 µM) | 0.0083 mg/mL (≈ 22 µM) | 0.0091 mg/mL (≈ 24.2 µM) | 0.029 mg/mL (≈ 77 µM) |  |  | 
3 | CCCCCCCCCCCCCCCc1cccc(OC)c1C(=O)O | 0.8 µg/mL (≈ 2.21 µM) | Not Active | 0.6 µg/mL (≈ 1.65 µM) | 2.5 µg/mL (≈ 6.9 µM) | 0.022 mg/mL (≈ 60.7 µM) | 0.011 mg/mL (≈ 30.3 µM) | > 0.033 mg/mL |  |  | 
4 | CCCCCCCCCCc1cccc(O)c1O |  |  |  | 21 µg/mL (≈ 83.9 µM) |  |  |  |  |  | 
5 | CCCCCCCCCCc1cccc(O)c1 | 1.9 µg/mL (≈ 8.11 µM) |  | 4.1 µg/mL (≈ 17.5 µM) | 4.5 µg/mL (≈ 19.2 µM) |  |  |  | Not Active | Not Active | 
6 | CCCCCCCCc1cccc(O)c1C(=O)O |  | Not Active | 16 µg/mL (≈ 63.9 µM) |  | 0.0039 mg/mL (≈ 15.6 µM) |  |  |  |  | Not Active
7 | CCC=CCC=CCC=CCCCCCCCc1cccc(O)c1C(=O)O |  | Not Active | 10 µg/mL (≈ 27 µM) | 17 µg/mL (≈ 45.9 µM) |  |  |  |  |  | 
8 | CC(C)CCCCCCCCCCCCCc1cccc(O)c1C(=O)O | 9.7 µg/mL (≈ 26.8 µM) | Not Active |  | 9 µg/mL (≈ 24.8 µM) |  | 0.016 mg/mL (≈ 44.1 µM) |  |  |  | 
9 | CCC(C)CCCCCCCCCCCCc1cccc(O)c1C(=O)O (stereo not given) | 10 µg/mL (≈ 27.6 µM) |  |  | 31 µg/mL (≈ 85.5 µM) |  | 0.036 mg/mL (≈ 99.3 µM) |  |  |  | 
10 | CCCCCCCCCCCCCCCc1cccc(O)c1 |  |  | 20 µg/mL (≈ 65.7 µM) | 7.2 µg/mL (≈ 23.6 µM) |  |  |  |  | Not Active | 
11 | CCCCCCCCCCc1cccc(O)c1C(=O)O | 12 µg/mL (≈ 43.1 µM) | Not Active |  |  |  |  |  |  |  | 
12 | CCCCCCCCCCCCCCCc1cccc(O)c1O |  |  |  | 29 µg/mL (≈ 90.5 µM) |  |  |  |  |  | 
13 | C=CC/C=C\C/C=C\CCCCCCCc1cccc(O)c1C(=O)O [ANACARDIC ACID] | 0.8 µg/mL (≈ 2.34 µM) | Not Active | 1.1 µg/mL (≈ 3.21 µM) | 1.4 µg/mL (≈ 4.09 µM) | 0.031 mg/mL (≈ 90.5 µM) | 0.0072 mg/mL (≈ 21 µM) | 0.025 mg/mL (≈ 73 µM) |  |  | 
14 | O=C(O)[C@H]1/C(=C/CO)O[C@@H]2CC(=O)N21 [CLAVULANIC ACID] |  |  | 0.015 µg/mL (≈ 0.0753 µM) |  |  |  |  |  |  | 
